These results are taken from patent US7345070B2, “Peroxisome proliferator activated receptor agonists” (Eli Lilly and Company, priority 2000, dated 2008).

The subject of assay [1] is huPPARα. In words: Cotransfection assay in CV-1 cells, huPPARα. The format is cell-based, human. As to conditions: GAL4 chimeric system, relative to PPARα agonist reference molecule. How it is done: (§1) DNA-dependent binding (ABCD binding) was carried out using SPA technology with PPAR receptors. Tritium-labeled PPARα and PPARγ agonists were used as radioligands for generating displacement curves and IC50 values with compounds of the invention. Cotransfection assays were carried out in CV-1 cells. The reporter plasmid contained an acylCoA oxidase (AOX) PPRE and TK promoter upstream of the luciferase reporter cDNA. Appropriate PPARs and RXRα were constitutively expressed using plasmids containing the CMV promoter. […] In order to eliminate such interference, a GAL4 chimeric system was used in which the DNA binding domain of the transfected PPAR was replaced by that of GAL4, and the GAL4 response element was utilized in place of the AOX PPRE. Cotransfection efficacy was determined relative to PPARα agonist and PPARγ agonist reference molecules. Efficacies were determined by computer fit to a concentration-response curve, or in some cases at a single high concentration of agonist (10 μM). For binding or cotransfection studies with receptors other than PPARs, similar assays were carried out using appropriate ligands, receptors, reporter constructs, etc., for that particular receptor.
(§2) These studies were carried out to evaluate the ability of compounds of the invention to bind to and/or activate various nuclear transcription factors, particularly huPPARα (“hu” indicates “human”) and huPPARγ. These studies provide in vitro data concerning efficacy and selectivity of compounds of the invention. Furthermore, binding and cotransfection data for compounds of the invention were compared with corresponding data for marketed compounds that act on either huPPARα or huPPARγ.

In assay [2] the target is T1, huPPARα (Homo sapiens, UniProt Q07869).
T1 sequence (Q07869 1-468): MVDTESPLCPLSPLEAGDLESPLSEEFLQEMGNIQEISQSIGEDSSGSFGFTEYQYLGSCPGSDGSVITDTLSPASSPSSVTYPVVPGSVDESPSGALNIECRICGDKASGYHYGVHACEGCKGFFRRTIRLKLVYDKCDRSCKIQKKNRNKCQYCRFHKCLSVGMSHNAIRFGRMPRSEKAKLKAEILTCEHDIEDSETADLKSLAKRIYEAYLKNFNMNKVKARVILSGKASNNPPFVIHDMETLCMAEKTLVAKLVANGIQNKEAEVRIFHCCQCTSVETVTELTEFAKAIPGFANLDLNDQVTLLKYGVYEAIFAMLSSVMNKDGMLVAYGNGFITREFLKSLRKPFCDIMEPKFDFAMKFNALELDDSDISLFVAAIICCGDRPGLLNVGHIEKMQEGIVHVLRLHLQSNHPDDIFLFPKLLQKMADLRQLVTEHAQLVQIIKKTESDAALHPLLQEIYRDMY
T1 sequence (P19793 1-462 partner): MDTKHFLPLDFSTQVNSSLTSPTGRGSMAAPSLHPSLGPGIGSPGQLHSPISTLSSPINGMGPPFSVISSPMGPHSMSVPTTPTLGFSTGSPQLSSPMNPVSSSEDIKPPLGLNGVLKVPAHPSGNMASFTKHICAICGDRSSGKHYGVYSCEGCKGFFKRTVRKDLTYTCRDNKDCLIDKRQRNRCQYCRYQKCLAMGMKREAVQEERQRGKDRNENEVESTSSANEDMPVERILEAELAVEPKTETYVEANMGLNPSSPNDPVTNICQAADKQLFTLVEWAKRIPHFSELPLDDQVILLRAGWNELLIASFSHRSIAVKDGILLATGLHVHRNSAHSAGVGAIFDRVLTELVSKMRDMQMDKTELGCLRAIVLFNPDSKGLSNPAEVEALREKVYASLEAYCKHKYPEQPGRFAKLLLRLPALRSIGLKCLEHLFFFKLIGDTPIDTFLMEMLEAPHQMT
Put plainly: DNA-dependent binding (ABCD binding) using SPA technology, huPPARα. To be noted: SPA displacement of tritium-labeled PPARα agonist radioligand. How it is done: as §1, §2

Assay [3] deals with T2, huPPARγ (Homo sapiens, UniProt P37231).
T2 sequence (P37231 1-505): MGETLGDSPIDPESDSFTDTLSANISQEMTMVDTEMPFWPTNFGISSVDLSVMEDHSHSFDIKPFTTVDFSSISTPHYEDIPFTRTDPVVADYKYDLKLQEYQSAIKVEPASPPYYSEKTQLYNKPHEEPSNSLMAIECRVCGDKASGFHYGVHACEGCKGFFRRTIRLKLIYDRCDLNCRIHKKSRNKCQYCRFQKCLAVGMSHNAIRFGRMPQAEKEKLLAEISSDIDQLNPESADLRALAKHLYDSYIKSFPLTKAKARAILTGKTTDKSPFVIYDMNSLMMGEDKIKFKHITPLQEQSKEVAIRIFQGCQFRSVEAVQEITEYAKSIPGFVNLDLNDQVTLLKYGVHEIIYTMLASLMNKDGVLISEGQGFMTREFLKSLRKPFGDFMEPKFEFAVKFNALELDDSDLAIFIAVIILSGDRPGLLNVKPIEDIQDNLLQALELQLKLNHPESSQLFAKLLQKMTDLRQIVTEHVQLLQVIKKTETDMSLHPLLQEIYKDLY
T2 sequence (P19793 1-462 partner): T1 sequence (P19793 1-462 partner)
Put plainly: Cotransfection assay in CV-1 cells, huPPARγ. It is filed as cell-based. The arrangement: Appropriate PPARs and RXRα were constitutively expressed using plasmids containing the CMV promoter; expressed in transfected cells; host or cells: CV-1 cells. As to conditions: AOX PPRE luciferase reporter, relative to PPARγ agonist reference molecule, read-out: huPPARγ CTF Efficacy. The method, then: as §1, §2
(Reporter assays use an easily measured gene product as a stand-in for the process of interest.)

The target of assay [4] is T2, huPPARγ. In words: DNA-dependent binding (ABCD binding) using SPA technology, huPPARγ. As to conditions: SPA displacement of tritium-labeled PPARγ agonist radioligand. The method, then:
as §1, §2

Structures are written as SMILES.

In the case of `Cc1oc(-c2cccc(Br)c2)nc1CCOc1ccc(CC(C)(Oc2ccccc2)C(=O)O)cc1` (stereo not drawn) [Example 8, 3-(4-{2-[2-(3-Bromophenyl)-5-methyloxazol-4-yl]ethoxy}phenyl)-2-methyl-2-phenoxypropionic acid], the “huPPARα CTF Efficacy” value with huPPARα [1] came to 54%. The concentration for half-maximal inhibition (IC50) (in general, the concentration that gives 50% inhibition) on huPPARα [2] is 63 nM; on huPPARγ [4] it was 24 nM. In addition, the Emax at huPPARγ [3] was determined as 75%.
For the compound `Cc1oc(-c2cccs2)nc1CCOc1ccc(CC(C)(Oc2ccc(F)cc2)C(=O)O)cc1` (stereo not drawn) [Example 64, 2-(4-Fluoro-phenoxy)-2-methyl-3-{4-[2-(5-methyl-2-thiophen-2-yl-oxazol-4-yl)-ethoxy]-phenyl}-propionic acid], the “huPPARα CTF Efficacy” value in the assay on huPPARα [1] turned out to be 50%. The IC50 was found to be 67 nM at huPPARα [2] and 112 nM on huPPARγ [4]. The Emax on huPPARγ [3] came out at 11%.
With `Cc1oc(C2CCCCC2)nc1CCOc1ccc(CC(C)(Oc2cccc(F)c2)C(=O)O)cc1` (stereo not drawn) [Example 23, 2-(3-Fluoro-phenoxy)-2-methyl-3-{4-[2-(5-methyl-2-cyclohexyl-oxazol-4-yl)-ethoxy]-phenyl}-propionic acid], the “huPPARα CTF Efficacy” value in the assay with huPPARα [1] worked out at 40%. Further, the half-maximal inhibitory concentration (IC50) on huPPARα [2] amounted to 63 nM; on huPPARγ [4] it was 81 nM. The Emax at huPPARγ [3] turned out to be 17%.
On the same counts, the results for `Cc1oc(-c2ccccc2)nc1CCOc1ccc(CC(C)(Oc2ccc(Cl)cc2)C(=O)O)cc1` (stereo not drawn) [Example 29, 2-(4-Chloro-phenoxy)-2-methyl-3-{4-[2-(5-methyl-2-phenyl-oxazol-4-yl)-ethoxy]-phenyl}-propionic acid] are 65%, 116 nM, 48 nM and 82%.
In the same order, the values of `Cc1oc(C2CCCCC2)nc1CCOc1ccc(CC(C)(Oc2ccc(OC(F)(F)F)cc2)C(=O)O)cc1` (stereo not drawn) [Example 44, 3-{4-[2-(2-Cyclohexyl-5-methyl-oxazol-4-yl)-ethoxy]-phenyl}-2-methyl-2-(4-trifluoromethoxy-phenoxy)-propionic acid] are 54%, 157 nM, 159 nM and 73%.
For the compound `Cc1oc(C2(C)CCCCC2)nc1CCOc1ccc(C[C@](C)(Oc2ccc(F)cc2)C(=O)O)cc1` [Example 67, (S)-2-(4-Fluoro-phenoxy)-2-methyl-3-(4-{2-[5-methyl-2-(1-methyl-cyclohexyl)-oxazol-4-yl]-ethoxy}-phenyl)-propionic acid], the “huPPARα CTF Efficacy” value in the assay with huPPARα [1] amounted to 34%. For the same compound, the IC50 at huPPARα [2] stood at 61 nM; on huPPARγ [4], 65 nM. In addition, the Emax at huPPARγ [3] came out at 11%.
Consider `Cc1oc(-c2ccccc2)nc1CCCc1ccc(CC(C)(Oc2ccccc2)C(=O)O)s1` (stereo not drawn) [Example 91, 2-Methyl-3-{5-[3-(5-methyl-2-phenyl-oxazol-4-yl)-propyl]-thiophen-2-yl}-2-phenoxy-propionic acid], for which, in the assay with huPPARα [1], the “huPPARα CTF Efficacy” value amounted to 47%. In addition, the half-maximal inhibitory concentration (IC50) on huPPARα [2] worked out at 215 nM; at huPPARγ [4], 51 nM. Besides, at huPPARγ [3], the Emax turned out to be 62%.
`Cc1oc(CCc2ccccc2)nc1CCOc1ccc(C[C@](C)(Oc2ccccc2)C(=O)O)cc1` [Example 86, (S)-2-Methyl-3-{4-[2-(5-methyl-2-phenethyl-oxazol-4-yl)-ethoxy]-phenyl}-2-phenoxy-propionic acid]: in the assay on huPPARα [1], the “huPPARα CTF Efficacy” value is listed as 24%. The figures for the IC50 on huPPARα [2] and on huPPARγ [4] were 55 nM and 72 nM, respectively. Besides, on huPPARγ [3], the Emax was 7%.
On the same counts, the results for `Cc1oc(C2CCCCC2)nc1CCOc1ccc(CC(C)(Oc2ccc(C3CCCCC3)cc2)C(=O)O)cc1` (stereo not drawn) [Example 34, 3-{4-[2-(2-Cyclohexyl-5-methyl-oxazol-4-yl)-ethoxy]-phenyl}-2-(4-cyclohexyl-phenoxy)-2-methyl-propionic acid] are 112%, 91 nM, 77 nM and 76%.
With `Cc1oc(C2CCCCC2)nc1CCOc1ccc(CC(C)(Oc2ccc(F)c(F)c2)C(=O)O)cc1` (stereo not drawn) [Example 58, 3-{4-[2-(2-Cyclohexyl-5-methyl-oxazol-4-yl)-ethoxy]-phenyl}-2-(3,4-difluoro-phenoxy)-2-methyl-propionic acid], in the assay with huPPARα [1], the “huPPARα CTF Efficacy” value is listed as 149%. Moreover, the IC50 at huPPARα [2] is 60 nM; on huPPARγ [4], 66 nM. Besides, on huPPARγ [3], the Emax is 41%.
On the same counts, the results for `Cc1ccc(OC(C)(Cc2ccc(OCCc3nc(-c4cccs4)oc3C)cc2)C(=O)O)cc1` (stereo not drawn) [Example 40, 2-Methyl-3-{4-[2-(5-methyl-2-thiophen-2-yl-oxazol-4-yl)-ethoxy]-phenyl}-2-p-tolyloxy-propionic acid] are 77%, 50 nM, 10 nM and 110%.
Take `Cc1cccc(OC(C)(Cc2ccc(OCCc3nc(C4CCCCC4)oc3C)cc2)C(=O)O)c1` (stereo not drawn) [Example 62, 3-{4-[2-(2-Cyclohexyl-5-methyl-oxazol-4-yl)-ethoxy]-phenyl}-2-methyl-2-m-tolyloxy-propionic acid]: in the assay on huPPARα [1], the “huPPARα CTF Efficacy” value came to 101%. Moreover, the half-maximal inhibitory concentration (IC50) was 58 nM at huPPARα [2] and 79 nM on huPPARγ [4]. Further, the Emax on huPPARγ [3] is 35%.
For `Cc1oc(C2CCCCC2)nc1CCOc1ccc(CC(C)(Oc2ccc(C(C)(C)C)cc2)C(=O)O)cc1` (stereo not drawn) [Example 18, 2-Methyl-3-(4-{2-[5-methyl-2-cyclohexylyl-oxazol-4-yl]-ethoxy}-phenyl)-2-(4-tert-butylphenoxy)-propionic acid], the “huPPARα CTF Efficacy” value in the assay on huPPARα [1] is given as 102%. Besides, the IC50 on huPPARα [2] amounted to 72 nM; at huPPARγ [4], 60 nM. Further, the Emax at huPPARγ [3] turned out to be 112%.
In the same order, the values of `COc1cccc(OC(C)(Cc2ccc(OCCc3nc(C4CCCCC4)oc3C)cc2)C(=O)O)c1` (stereo not drawn) [Example 76, 3-{4-[2-(2-Cyclohexyl-5-methyl-oxazol-4-yl)-ethoxy]-phenyl}-2-(3-methoxy-phenoxy)-2-methyl-propionic acid] are 63%, 76 nM, 83 nM and 24%.
In the case of `Cc1oc(-c2cccs2)nc1CCOc1ccc(CC(C)(Oc2ccccc2F)C(=O)O)cc1` (stereo not drawn) [Example 27, 2-(2-Fluoro-phenoxy)-2-methyl-3-{4-[2-(5-methyl-2-thiophen-2-yl-oxazol-4-yl)-ethoxy]-phenyl}-propionic acid], the “huPPARα CTF Efficacy” value with huPPARα [1] was 46%. The 50% inhibitory concentration (IC50) on huPPARα [2] is 75 nM; on huPPARγ [4], 76 nM. The Emax on huPPARγ [3] is 15%.
